Measured values as given in patent US12528817B2, “Method of inhibiting kinase by mesylate salts of triazolopyrazine derivatives” (ABION Inc., priority 2022, dated 2026).
“And” between values parts separate entries of the source, which are not always exact repeats. Equal entries are not always repeated. “Also recorded” adds a separate entry of the source.

What was measured:
[1] = DVS analysis (hygroscopicity, moisture sorption); format: physicochemical; details: for Change in mass at 80% RH / Change of mass in the range 40→95% RH / Water vapor uptake at 95% RH / Change in mass in the range 0→40% RH: 25° C.; for Solid form after DVS analysis: XRPD at end of DVS; for Hygroscopicity classification (European Pharmacopeia): based on change in mass at 80% RH; for Change of mass in the range 40→95% RH / Water vapor uptake at 95% RH: first sorption half-cycle; for Change in mass in the range 0→40% RH: last sorption half-cycle; for Reversibility of water uptake: sorption-desorption-sorption 40-95-0-40% RH
Experimental: Differences in hygroscopicity (moisture uptake) of the various forms of a solid material provided a measure of their relative stability at increasing relative humidity. Moisture sorption isotherms of small samples were obtained using a DVS-1 system from Surface Measurement Systems (London, UK); this instrument is suitable for use with as little as a few milligrams of sample, with an accuracy of 0.1 μg. The relative humidity was varied during sorption-desorption-sorption (40-95-0-40% RH) at a constant temperature of 25° C., typically with a hold time of 60 minutes per step (10% relative humidity step). At the end of the DVS experiment the sample was measured by XRPD.
The hygroscopicity was classified according to the European Pharmacopoeia Hygroscopicity classification.

[2] = Long-term physical stability study, solid form by HT-XRPD; format: physicochemical
Experimental: (§1) HT-XRPD patterns were obtained using the Crystallics T2 high-throughput XRPD set-up. The plates were mounted on a Bruker General Area Detector Diffraction System (GADDS) equipped with a VANTEC-500 gas area detector corrected for intensity and geometric variations. The calibration of the measurement accuracy (peaks position) was performed using NIST SRM1976 standard (Corundum).
(§2) Data collection was carried out at room temperature using monochromatic Cu Kα radiation in the 2θ region between 1.5° and 41.5°, which is the most distinctive part of the XRPD pattern. The diffraction pattern of each well was collected in two 20 ranges (1.5°≤2θ≤21.5° for the first frame, and 19.5°≤2θ≤41.5° for the second) with an exposure time of 90 s for each frame. No background subtraction or curve smoothing was applied to the XRPD patterns. The carrier material used during HT-XRPD analysis was transparent to X-rays and contributed only slightly to the background.

[3] = Long-term stability study, water content by TGA/TGMS; format: physicochemical
Experimental: Mass loss due to solvent or water loss from the crystals was determined by TGA. […] The TGA/DSC 3+ was calibrated for temperature with samples of indium and aluminum. Samples (circa 2 mg) were weighed into 100 μL aluminum crucibles and sealed. The seals were pin-holed, and the crucibles heated in the TGA from 25 to 300° C. at a heating rate of 10° C./min. Dry N2 gas was used for purging.
The gases coming from the TGA samples were analyzed by a mass spectrometer Omnistar GSD 301 T2 (Pfeiffer Vacuum GmbH, Germany). The latter is a quadrupole mass spectrometer, which analyzes masses in the […] of 0-200 amu.

[4] = Long-term chemical stability study, API chemical purity by HPLC/LCMS; format: physicochemical
Experimental: Assay and purity assessment of the novel crystalline salts • Method name: S19061_01.MV • Sample: • Concentration: 0.3 mg/ml • Diluent: Acetonitrile/water (50/50)

[5] = Physical stability under accelerated aging conditions (AAC), HT-XRPD; details: for Form after AAC: 40° C./75% RH, 2 days (48 hours), HT-XRPD; for Physical stability after exposure to AAC: 40° C./75% RH for 2 days
Experimental: Upon completion of the aging time, the solids were separated from the liquid phases, dried under vacuum at 50° C. and analyzed by HT-XRPD. […] Subsequently, all the solids were exposed to accelerated aging conditions (AAC) at 40° C./75% RH for 48 hours and re-measured by HT-XRPD to test their physical stability.
as §1, §2

[6] = Thermal stability study in solution (LCMS); format: physicochemical; details: for Area %: approx. 0.3 mg/mL
Experimental: A thermal stability study was performed on ABN-401 to investigate the chemical stability of the starting material in solution when exposed to elevated temperatures. Solutions of ABN-401 were prepared in acetone, 1,2-dimethoxyethane, and acetonitrile with a concentration of approximately 0.3 mg/mL. Solutions were left at RT for 1 hour and successively, two aliquots of each solution were taken and heated at 50° C. and 80° C. for one hour. All these solutions were analyzed by LCMS. Additionally, the samples kept at RT were remeasured by LCMS after 24 hours to check the chemical degradation over time.
Starting material characterization and purity assessment of the novel crystalline forms of the free base: • Method name: S19061_03.M • Sample: • Concentration: 0.3 mg/ml • Diluent: Acetonitrile

Row | SMILES | Change in mass at 80% RH [1] | Solid form after DVS analysis [1] | Hygroscopicity classification (European Pharmacopeia) [1] | Change of mass in the range 40→95% RH [1] | Water vapor uptake at 95% RH [1] | Change in mass in the range 0→40% RH [1] | Reversibility of water uptake [1] | Solid form (HT-XRPD) after storage ([2]; 25° C./60% RH, 1 month) | Solid form (HT-XRPD) after storage ([2]; 25° C./60% RH, 3 months) | Solid form (HT-XRPD) after storage ([2]; 25° C./60% RH, 15 months) | Solid form (HT-XRPD) after storage ([2]; 25° C./60% RH, 24 months) | Mass loss attributed to water (TGA) after storage ([3]; 25° C./60% RH, 1 month) | Mass loss attributed to water (TGA) after storage ([3]; 40° C./75% RH, 1 month) | Mass loss attributed to water (TGA) after storage ([3]; 40° C./75% RH, 3 months) | Mass loss attributed to water (TGA) after storage ([3]; 40° C./75% RH, 15 months) | Mass loss attributed to water (TGA) after storage ([3]; 40° C./75% RH, 24 months) | API chemical purity after storage ([4]; 25° C./60% RH, 24 months) | API chemical purity after storage ([4]; 40° C./75% RH, 24 months) | Form after AAC [5] | Physical stability after exposure to AAC [5] | further results
1 | CC1(C)[C@@H]2CC[C@@]1(CS(=O)(=O)O)C(=O)C2.CN1CCN(Cc2ccc(-c3cnc(N4CCOC(Cn5nnc6ncc(-c7cnn(C)c7)nc65)C4)nc3)cc2)CC1 (stereo in doubt) [Camp2] | 1.4% | Camp4 | slightly hygroscopic | 14.1% | 15.6% | 6.6% | irreversible | Camp2 | Camp2 | Camp2 | no solid form conversion; also recorded: Camp2 | 1.6% | 1.8% | 7.1% | 6.9% | 6.7% | 100 % (area %) | 88.6 % (area %) | Camp2 | – | Solid form (HT-XRPD) after storage ([2]; 40° C./75% RH, 1 month): Camp2; Solid form (HT-XRPD) after storage ([2]; 40° C./75% RH, 3 months): solid form conversion of Camp2 to Camp4; Solid form (HT-XRPD) after storage ([2]; 40° C./75% RH, 15 months): Camp4; Solid form (HT-XRPD) after storage ([2]; 40° C./75% RH, 24 months): a mixture of a camsylate salt and Form E of the free base; also recorded: Camp3+E; Mass loss attributed to water (TGA) after storage ([3]; 25° C./60% RH, 24 months): 1.9%; API chemical purity after storage ([4]; 25° C./60% RH, 1 month): 99.8 % (area %); API chemical purity after storage ([4]; 25° C./60% RH, 15 months): 99.5 % (area %) and 97.3 % (area %) and 100 % (area %); API chemical purity after storage ([4]; 40° C./75% RH, 1 month): 99.8 % (area %); API chemical purity after storage ([4]; 40° C./75% RH, 15 months): 93.7 % (area %) and 88.6 % (area %)
2 | CN1CCN(Cc2ccc(-c3cnc(N4CCOC(Cn5nnc6ncc(-c7cnn(C)c7)nc65)C4)nc3)cc2)CC1 (centres unmarked) [ABN-401] | – | – | – | – | – | – | – | – | – | – | – | 3.7% | 4.0% | 4.4% | 3.7% | 5.2% | 87.2 % (area %) | 90.7 % (area %) | – | – | Area % ([6]; 1,2-dimethoxyethane, 1 h/50° C.): 98.6%; Area % ([6]; 1,2-dimethoxyethane, 1 h/80° C.): 97.7%; Area % ([6]; 1,2-dimethoxyethane, 1 h/RT): 99.0%; Area % ([6]; 1,2-dimethoxyethane, 24 h/RT): 98.8%; Area % ([6]; ACN, 1 h/50° C.): 99.0%; Area % ([6]; ACN, 1 h/80° C.): 98.7%; Area % ([6]; ACN, 1 h/RT): 99.0%; Area % ([6]; ACN, 24 h/RT): 98.1%; Area % ([6]; Acetone, 1 h/50° C.): 99.0%; Area % ([6]; Acetone, 1 h/80° C.): 99.0%; Area % ([6]; Acetone, 1 h/RT): 98.8%; Area % ([6]; Acetone, 24 h/RT): 98.5%; Chemical degradation in solution ([6]; samples kept at 50° C. and 80° C. for one hour, acetone, 1,2-dimethoxyethane, acetonitrile): No significant chemical degradation; Mass loss attributed to water (TGA) after storage ([3]; 25° C./60% RH, 3 months): 4.1%; Mass loss attributed to water (TGA) after storage ([3]; 25° C./60% RH, 15 months): 3.3%; Mass loss attributed to water (TGA) after storage ([3]; 25° C./60% RH, 24 months): 5.3%
3 | CC1(C)[C@@H]2CC[C@@]1(CS(=O)(=O)O)C(=O)C2.CN1CCN(Cc2ccc(-c3cnc(N4CCOC(Cn5nnc6ncc(-c7cnn(C)c7)nc65)C4)nc3)cc2)CC1 (centres unmarked) [Camp1] | – | – | – | – | – | – | – | – | – | – | – | – | – | – | – | – | – | – | Camp1 | physically stable | –
4 | CN1CCN(Cc2ccc(-c3cnc(N4CCOC(Cn5nnc6ncc(-c7cnn(C)c7)nc65)C4)nc3)cc2)CC1.CS(=O)(=O)O (centres unmarked) [Mes1] | – | – | – | – | – | – | – | – | – | – | – | – | – | – | – | – | – | – | Mes1 | physically stable | –
5 | CN1CCN(Cc2ccc(-c3cnc(N4CCOC(Cn5nnc6ncc(-c7cnn(C)c7)nc65)C4)nc3)cc2)CC1.CS(=O)(=O)O.CS(=O)(=O)O (centres unmarked) [Mes2] | approximately 12.2% | No change in the solid form | moderately hygroscopic | 24.8% | 29.6% | 4.6% | reversible | Mes2 | no significant differences in the powder patterns and Mes2 | additional diffraction peaks were detected at 15.1 and 16.5° 2θ; also recorded: Mes2+peaks | Mes6 | 8.0% | 10.8% | 11.2% | 9.6% | ~12.0% | 99.6 % (area %) | 100 % (area %) | Mes2 | physically stable | Solid form (HT-XRPD) after storage ([2]; 40° C./75% RH, 1 month): Mes2; Solid form (HT-XRPD) after storage ([2]; 40° C./75% RH, 3 months): showed these additional peaks; also recorded: Mes2+peaks; Solid form (HT-XRPD) after storage ([2]; 40° C./75% RH, 15 months): Mes4 and Mes4+peaks; Solid form (HT-XRPD) after storage ([2]; 40° C./75% RH, 24 months): Mes6; Mass loss attributed to water (TGA) after storage ([3]; 25° C./60% RH, 3 months): 7.7%; Mass loss attributed to water (TGA) after storage ([3]; 25° C./60% RH, 15 months): 6.5%; API chemical purity after storage ([4]; 25° C./60% RH, 1 month): 100 % (area %) and 99.7 % (area %); API chemical purity after storage ([4]; 25° C./60% RH, 3 months): 99.6 % (area %); API chemical purity after storage ([4]; 25° C./60% RH, 15 months): 100 % (area %); API chemical purity after storage ([4]; 40° C./75% RH, 1 month): 99.7 % (area %) and 97.2 % (area %); API chemical purity after storage ([4]; 40° C./75% RH, 3 months): 99.5 % (area %); API chemical purity after storage ([4]; 40° C./75% RH, 15 months): 100 % (area %)
6 | CN1CCN(Cc2ccc(-c3cnc(N4CCOC(Cn5nnc6ncc(-c7cnn(C)c7)nc65)C4)nc3)cc2)CC1.CS(=O)(=O)O.CS(=O)(=O)O.CS(=O)(=O)O (centres unmarked) [Mes3] | – | – | – | – | – | – | – | – | – | – | – | – | – | – | – | – | – | – | Mes3 (deliquescent) | became deliquescent | –
